In US20030207854A1, “Antiprogestins with partial agonist activity” (priority 2002, published 2003):
Where two headings read alike, the source gives them in different places.

Experiments:
[1] = biological target: T1, PR (Homo sapiens, UniProt P06401)
T1 sequence (P06401 1-933): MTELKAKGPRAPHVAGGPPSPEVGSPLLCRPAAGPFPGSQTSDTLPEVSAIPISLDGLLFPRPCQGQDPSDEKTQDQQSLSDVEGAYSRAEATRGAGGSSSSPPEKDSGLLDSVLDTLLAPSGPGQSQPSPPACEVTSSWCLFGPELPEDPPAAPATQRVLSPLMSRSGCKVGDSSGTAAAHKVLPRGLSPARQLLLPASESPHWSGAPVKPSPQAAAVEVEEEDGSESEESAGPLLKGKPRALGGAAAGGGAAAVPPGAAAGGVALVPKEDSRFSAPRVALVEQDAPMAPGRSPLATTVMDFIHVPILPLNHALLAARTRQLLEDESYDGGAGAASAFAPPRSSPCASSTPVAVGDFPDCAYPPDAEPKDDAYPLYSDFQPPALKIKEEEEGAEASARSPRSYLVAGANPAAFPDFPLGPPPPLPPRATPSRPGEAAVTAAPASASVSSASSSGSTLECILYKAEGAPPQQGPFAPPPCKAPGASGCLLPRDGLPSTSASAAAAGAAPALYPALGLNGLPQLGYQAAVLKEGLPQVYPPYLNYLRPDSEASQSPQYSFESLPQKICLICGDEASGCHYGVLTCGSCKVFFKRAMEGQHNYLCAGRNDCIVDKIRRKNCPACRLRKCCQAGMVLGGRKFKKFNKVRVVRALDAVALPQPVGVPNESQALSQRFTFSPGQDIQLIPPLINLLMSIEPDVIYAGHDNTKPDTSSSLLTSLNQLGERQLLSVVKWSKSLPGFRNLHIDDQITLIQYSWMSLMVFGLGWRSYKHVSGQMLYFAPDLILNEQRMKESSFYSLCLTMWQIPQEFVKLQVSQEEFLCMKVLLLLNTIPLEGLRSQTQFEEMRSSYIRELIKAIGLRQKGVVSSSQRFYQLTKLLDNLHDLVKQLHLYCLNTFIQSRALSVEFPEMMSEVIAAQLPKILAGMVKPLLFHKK
Source text: The absolute levels of luciferase activity (±S.D. of triplicate values) were plotted.

[2] = biological target: T2, human PR-B (Homo sapiens, UniProt P06401); assay: PR-B transactivation of MMTVLuc reporter in transiently transfected 1470.2 cells; assay type: cell-based; conditions: for EC50: read-out: EC50 from dose-response curves
T2 construct: expressed in transfected cells; host or cells: 1470.2 mouse mammary adenocarcinoma cells
T2 sequence (P06401 1-933): T1 sequence (P06401 1-933)
Source text: All data were normalized for Renilla expression. […] The error bars represent the SD of triplicate plates.
All data were normalized for protein levels in the cell lysates. […] The error bars represent the SD of triplicate plates.
All data were normalized for Renilla expression.

[3] = biological target: T1, PR; assay type: cell-based; design: expressed in transfected cells; host or cells: CV-1 cells
Method: Cell culture and transfection: Monolayer cultures of COS-7 cells were grown at 37° C. with 5% CO2 in Dulbecco's modified Eagle's medium (DMEM; GIBCO/BRL Life Technologies, Inc.) supplemented with 5% of fetal bovine serum, respectively. The 1470.2 mouse mammary adenocarcinoma cells (Pennie et al., Mol Cell Biol 15:2125-2134, 1995) were grown in DMEM with 4.5 g glucose/L (Quality Biologicals, Inc.) whereas T47D cells were grown in Dulbecco's modified Eagle's medium with high glucose (4.5 g/L, 2 mM glutamine, and 60 ng/ml insulin), both with 10% of fetal bovine serum. The 1470.2 cells were transiently transfected with the human PR-B construct, 1 μg of MMTVLuc, and 50 ng Renilla null luciferase, with the total transfected DNA brought up to 3 μg/60 mm dish with pBSK^+DNA, using the calcium phosphate method as previously described (Szapary et al., J Biol Chem 271:30576-30582, 1996). Following 24 h of steroid treatment, the cells were harvested in 1× Passive Lysis Buffer (0.5 ml/dish; Promega, Madison, Wis.). Twenty μl of the cell lysates were used to assay for luciferase activity using the Dual-Luciferase Assay System from Promega (Madison, Wis.) and the methods recommended by the supplier. […]

[4] = 1470.2 cells, transfected human PR-B, MMTVLuc reporter

C[C@@H]1C[C@H]2[C@@H]3CCC4=CC(=O)C=C[C@]4(C)[C@@]3(F)[C@@H](O)C[C@]2(C)[C@@]1(O)C(=O)COS(C)(=O)=O [Dex-Mes, dexamethasone 21-mesylate]
antiprogestin activity: inhibition of the action of 300 pM R5020 ([1]; 1 μM and 10 μM Dex-Mes, 1 μM Dex-Ox, FIG. 7): reduced the activity of 300 pM R5020 to that of the competing steroid alone
partial progestin activity with added PR ([2]; 1470.2 cells, 3 or 30 ng PR-B plasmid, 1 μM steroid, FIG. 5B): significant amounts of partial progestin activity
EC50 [2, 4]: ~350 nM
agonist activity in CV-1 cells ([3]; CV-1 cells): much more agonist activity than either RIT 3021-020 or RU 486

C[C@@H]1C[C@H]2[C@@H]3CCC4=CC(=O)C=C[C@]4(C)[C@@]3(F)[C@@H](O)C[C@]2(C)[C@]12OCC2=O [Dex-Ox, dexamethasone oxetanone]
antiprogestin activity: inhibition of the action of 300 pM R5020 [1]: reduced the activity of 300 pM R5020 to that of the competing steroid alone
partial progestin activity with added PR [2]: significant amounts of partial progestin activity
EC50 [2]: ~30 nM
agonist activity in CV-1 cells [3]: much more agonist activity than either RIT 3021-020 or RU 486

CCC(=O)[C@@]1(C)CC[C@H]2[C@@H]3CCC4=CC(=O)CCC4=C3CC[C@@]21C [R5020, promegestone, reference compound]
EC50 [2, 4]: 0.4 nM
